Common to all, as to assay: growth of human tumour cells (NCI), 48 h
In assay [1] the test system is A498.
The subject of assay [2] is BT-549.
For assay [3], the system named is HCC 2998.
The subject of assay [4] is HL-60.
In assay [5] the test system is HOP-92.
Assay [6] has as its system LOX IMVI.
For assay [7], the system named is M14.
Assay [8] has as its system MDA-N.
Assay [9] relates to NCI-H460.
The test system of assay [10] is NCI-H522.
Assay [11] relates to OVCAR-3.
Assay [12] has as its system OVCAR-4.
The test system of assay [13] is RPMI-8226.
The subject of assay [14] is RXF 393.
Assay [15] relates to SF-295.
Assay [16] concerns SK-MEL-5.
For assay [17], the system named is SK-OV-3.
The test system of assay [18] is SW-620.
The test system of assay [19] is T47D.
Assay [20] concerns UACC-257.

The results in this text go back to ChEMBL document CHEMBL1201862, “PubChem BioAssay data set” (2004).

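Exposure lasted 48 hours, with cells grown in 96-well plates and compounds tested at five concentrations. GI50 is the concentration that inhibits growth by half.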 Active and inactive are the calls of the source. Cut-off read from the data, not from the text of the source: active = GI50 up to about 1.1 µM and inactive = higher.

With `O=C1c2ccccc2C(=O)c2c1oc(=O)c1ccccc21`, the GI50 in assay [1] is 9.82 µM (inactive); in assay [2] it was 4.51 µM (inactive); in [3], 3.21 µM (inactive); in assay [4], 0.664 µM (active); in assay [5], 5.16 µM (inactive); in assay [6], 3.65 µM (inactive). The GI50 is 6.05 µM (inactive) in assay [7]; 2.2 µM (inactive) in assay [8]; 4.38 µM (inactive) in assay [9]; 4.07 µM (inactive) in [10]; 0.698 µM (active) in [11]; 1.08 µM (active) in [12]. Besides, the GI50 was 3.63 µM (inactive) in assay [13]; 4.48 µM (inactive) in assay [14]; 3.83 µM (inactive) in assay [15]; 1.29 µM (inactive) in assay [16]; 9.25 µM (inactive) in [17]; 2.08 µM (inactive) in assay [18]. The GI50 was 5.47 µM (inactive) in assay [19] and 3.22 µM (inactive) in assay [20].
For `CC(C)OC(=O)C(NC(=O)C(CC(=O)OCc1ccccc1)NC(=O)OCc1ccccc1)NC(=O)C1C(C)(C)CCC1(C)C` (stereo not given), the GI50 is 2.5 µM (inactive) in assay [1]; 17.4 µM (inactive) in [2]; 24.9 µM (inactive) in assay [3]; 3.76 µM (inactive) in [4]; 11 µM (inactive) in assay [5]; 4.56 µM (inactive) in assay [6]. Moreover, the GI50 was 21.5 µM (inactive) in assay [7]; 10.1 µM (inactive) in [8]; 16.7 µM (inactive) in [9]; 11.6 µM (inactive) in assay [10]; 2.77 µM (inactive) in assay [11]; 3.55 µM (inactive) in assay [12]. Also, the GI50 in assay [13] was 7.5 µM (inactive); in assay [14], 4.43 µM (inactive); in assay [15], 14.1 µM (inactive); in assay [16], 13.7 µM (inactive); in [17], 4.18 µM (inactive); in assay [18], 3.23 µM (inactive). The GI50 in assay [19] was 26.5 µM (inactive); in assay [20], 30.3 µM (inactive).
Turning to `Cn1c2ccccc2n2c(N=O)c(-c3ccccc3)nc12`, the GI50 was > 100 µM (inactive) in [1]; 27.6 µM (inactive) in assay [2]; 11.7 µM (inactive) in assay [3]; 92.3 µM (inactive) in assay [4]; 84.3 µM (inactive) in assay [5]; > 100 µM (inactive) in assay [6]. Besides, the GI50 in [7] is 19.6 µM (inactive); in assay [8] it was 55.1 µM (inactive); in assay [9], 16.4 µM (inactive); in [10], 57.5 µM (inactive); in assay [11] it was 30.1 µM (inactive); in assay [12], 62.4 µM (inactive). Also, the GI50 in assay [13] was 90.8 µM (inactive); in assay [14], 49.3 µM (inactive); in assay [15], 31.1 µM (inactive); in assay [16], 14.8 µM (inactive); in assay [17], 67.3 µM (inactive); in assay [18], 72.8 µM (inactive). In addition, the GI50 is 95.9 µM (inactive) in assay [19] and 34.3 µM (inactive) in assay [20].
`O=C(c1ccccc1)c1cc[n+](C2=C([N-]S(=O)(=O)c3ccccc3)C(=O)c3ccccc3C2=O)cc1`: the GI50 is 18.1 µM (inactive) in assay [1]; 6.76 µM (inactive) in assay [2]; 11.4 µM (inactive) in assay [3]; 2.15 µM (inactive) in assay [4]; 8.61 µM (inactive) in assay [5]; 2.42 µM (inactive) in [6]. Moreover, the GI50 in assay [7] was 11.1 µM (inactive); in [8], 1.86 µM (inactive); in assay [9] it was 13.5 µM (inactive); in assay [10] it was 4.74 µM (inactive); in [11], 3.1 µM (inactive); in assay [12] it was 13.1 µM (inactive). The GI50 in assay [13] was 3.3 µM (inactive); in assay [14], 12.4 µM (inactive); in [15], 11.8 µM (inactive); in assay [16], 2.01 µM (inactive); in assay [17], 15.4 µM (inactive); in [18], 10 µM (inactive). Also, the GI50 in assay [19] is 3.33 µM (inactive); in assay [20] it was 11.6 µM (inactive).
